Test system: mouse cortical cultures
Assay: RNA-seq differential expression (DESeq) against matched vehicle
Assay type: cell-based
Design: key to MeanFenamidone Bcl11b / MeanFenamidone Slc12a4 / MeanFenamidone Abca1 / MeanFenamidone Hmox1 / MeanFenamidone Il1rap / MeanFenamidone Cyba / MeanFenamidone Narf / MeanFenamidone Bnip3 / MeanFenamidone Amotl2 / MeanFenamidone Gad2 / MeanFenamidone Vsnl1 / MeanFenamidone Fam178a: DESeq mean of counts over RefSeq exons
Method: Figure 4 Cluster 2 chemicals alter expression of a common set of genes. […] RNA-seq was performed in quadruplicate after treating cortical cultures with fenamidone (10 μM) or pyraclostrobin (0.1 μM) for 24 h (n=3 biological replicates) and compared with matched vehicle controls using DESeq to detect differentially expressed genes, listed in Supplementary Data 4.
Cultures were treated with the non-cytotoxic dose of each chemical, by exchanging half of the original medium with chemicals at 2 × concentration in prewarmed feeding medium, on DIV 7 for 24 h in 12-well plates at a density of 5 × 10^5 cells per well. RNA was isolated using RNeasy plus mini kit (Cat. #74134, Qiagen). […]. Samples were further assessed for quality using either an Agilent Bioanalyzer 2100 or TapeStation 2200 to obtain a RIN. RIN values exceeding 7 were used for sequencing. RNA samples were used to generate and barcode complementary DNA libraries using the TruSeq RNA Library Preparation Kit at the UNC High Throughput Sequencing Facility. Pools of 24 multiplexed samples were sequenced per lane on an Illumina HiSeq 2500 using 50-bp paired-end reads.
RNA-seq reads were filtered using TagDust and aligned to the reference mouse genome (mm9) with TopHat using default parameters. Reads aligning to ribosomal RNA genes were removed. Transcript abundance was estimated by computing Reads per kilobase per million mapped reads (RPKM) using RefSeq gene models aggregated by gene symbol. For differential expression analyses, raw counts over RefSeq exons were used, and then were compared across samples using DESeq[62].

## CSC1=N[C@@](C)(c2ccccc2)C(=O)N1Nc1ccccc1 [fenamidone]
Gene Kirrel, DESeq mean, 4 reps
  MeanFenamidone Kirrel: 376.176
Gene Kirrel, vs vehicle, 4 reps
  log2FoldChange Kirrel: 1.966
Gene Klf3, DESeq mean, 4 reps
  MeanFenamidone Klf3: 165.964
Gene Klf3, vs vehicle, 4 reps
  log2FoldChange Klf3: 1.6001
Gene Lama5, DESeq mean, 4 reps
  MeanFenamidone Lama5: 696.831
Gene Lama5, vs vehicle, 4 reps
  log2FoldChange Lama5: 3.008
Gene Lamc1, DESeq mean, 4 reps
  MeanFenamidone Lamc1: 1262.75
Gene Lamc1, vs vehicle, 4 reps
  log2FoldChange Lamc1: 1.942
Gene Lats2, DESeq mean, 4 reps
  MeanFenamidone Lats2: 789.339
Gene Lats2, vs vehicle, 4 reps
  log2FoldChange Lats2: 2.05
Gene Lgals1
  MeanFenamidone: 315.526
  log2FoldChange: 2.643
Gene Lgals3, DESeq mean, 4 reps
  MeanFenamidone Lgals3: 148.009
Gene Lgals3, vs vehicle, 4 reps
  log2FoldChange Lgals3: 3.47
Gene Lhfp, DESeq mean, 4 reps
  MeanFenamidone Lhfp: 460.237
Gene Lhfp, vs vehicle, 4 reps
  log2FoldChange Lhfp: 1.564
Gene Lhx6
  MeanFenamidone: 36.2637
  log2FoldChange: -1.466
Gene Lif, DESeq mean, 4 reps
  MeanFenamidone Lif: 71.2282
Gene Lif, vs vehicle, 4 reps
  log2FoldChange Lif: 2.278
Gene Lima1, DESeq mean, 4 reps
  MeanFenamidone Lima1: 304.711
Gene Lima1, vs vehicle, 4 reps
  log2FoldChange Lima1: 2.122
Gene Lipa, DESeq mean, 4 reps
  MeanFenamidone Lipa: 195.186
Gene Lipa, vs vehicle, 4 reps
  log2FoldChange Lipa: 1.701
Gene Lpp
  MeanFenamidone: 386.544
  log2FoldChange: 2.227
Gene Lrig1
  MeanFenamidone: 287.461
  log2FoldChange: 1.313
Gene Lrp2, DESeq mean, 4 reps
  MeanFenamidone Lrp2: 218.41
Gene Lrp2, vs vehicle, 4 reps
  log2FoldChange Lrp2: 3.259
Gene Lrp5, DESeq mean, 4 reps
  MeanFenamidone Lrp5: 104.9
Gene Lrp5, vs vehicle, 4 reps
  log2FoldChange Lrp5: 2.141
Gene Lrrk1, DESeq mean, 4 reps
  MeanFenamidone Lrrk1: 150.568
Gene Lrrk1, vs vehicle, 4 reps
  log2FoldChange Lrrk1: 2.538
Gene Lrrk2, DESeq mean, 4 reps
  MeanFenamidone Lrrk2: 55.3056
Gene Lrrk2, vs vehicle, 4 reps
  log2FoldChange Lrrk2: 2.7898
Gene Lsm11, DESeq mean, 4 reps
  MeanFenamidone Lsm11: 253.873
Gene Lsm11, vs vehicle, 4 reps
  log2FoldChange Lsm11: -1.609
Gene Lzts1, DESeq mean, 4 reps
  MeanFenamidone Lzts1: 28.4823
Gene Lzts1, vs vehicle, 4 reps
  log2FoldChange Lzts1: -2.067
Gene Maff, DESeq mean, 4 reps
  MeanFenamidone Maff: 142.888
Gene Maff, vs vehicle, 4 reps
  log2FoldChange Maff: 2.5091
Gene Man2b1
  MeanFenamidone: 147.398
  log2FoldChange: 1.707
Gene Map9
  MeanFenamidone: 691.478
  log2FoldChange: -1.0525
Gene Mapkapk3, DESeq mean, 4 reps
  MeanFenamidone Mapkapk3: 109.426
Gene Mapkapk3, vs vehicle, 4 reps
  log2FoldChange Mapkapk3: 2.329
Gene Mdk, DESeq mean, 4 reps
  MeanFenamidone Mdk: 140.699
Gene Mdk, vs vehicle, 4 reps
  log2FoldChange Mdk: 2.08
Gene Mdm2
  MeanFenamidone: 455.963
  log2FoldChange: 1.1
Gene Mllt11, DESeq mean, 4 reps
  MeanFenamidone Mllt11: 1306.3
Gene Mllt11, vs vehicle, 4 reps
  log2FoldChange Mllt11: -1.396
Gene Mpp6, DESeq mean, 4 reps
  MeanFenamidone Mpp6: 437.651
Gene Mpp6, vs vehicle, 4 reps
  log2FoldChange Mpp6: 1.381
Gene Msn, DESeq mean, 4 reps
  MeanFenamidone Msn: 1825.06
Gene Msn, vs vehicle, 4 reps
  log2FoldChange Msn: 2.348
Gene Mturn, DESeq mean, 4 reps
  MeanFenamidone Mturn: 252.358
Gene Mturn, vs vehicle, 4 reps
  log2FoldChange Mturn: -1.427
Gene Myh9, DESeq mean, 4 reps
  MeanFenamidone Myh9: 944.67
Gene Myh9, vs vehicle, 4 reps
  log2FoldChange Myh9: 2.571
Gene Myl9
  MeanFenamidone: 343.782
  log2FoldChange: 2.6473
Gene Myl12a, DESeq mean, 4 reps
  MeanFenamidone Myl12a: 537.985
Gene Myl12a, vs vehicle, 4 reps
  log2FoldChange Myl12a: 2.298
Gene Myo9b
  MeanFenamidone: 246.577
  log2FoldChange: 1.347
Gene Myof, DESeq mean, 4 reps
  MeanFenamidone Myof: 104.99
Gene Myof, vs vehicle, 4 reps
  log2FoldChange Myof: 3.761
Gene Nap1l2, DESeq mean, 4 reps
  MeanFenamidone Nap1l2: 81.273
Gene Nap1l2, vs vehicle, 4 reps
  log2FoldChange Nap1l2: -1.959
Gene Nap1l3, DESeq mean, 4 reps
  MeanFenamidone Nap1l3: 110.395
Gene Nap1l3, vs vehicle, 4 reps
  log2FoldChange Nap1l3: -1.464
Gene Narf, DESeq mean, 4 reps
  MeanFenamidone Narf: 102.622
Gene Narf, vs vehicle, 4 reps
  log2FoldChange Narf: -2.14
Gene Ndrg4
  MeanFenamidone: 999.172
  log2FoldChange: -1.28

From article PMC4821887, “Identification of chemicals that mimic transcriptional changes associated with autism, brain aging and neurodegeneration” (Nature Communications, 2016)
